Assay results taken from patent publication US8460646B2, “Methods and compositions for treating mammalian nerve tissue injuries” (Purdue Research Foundation, priority 1998, dated 2013).

What was measured:
[1] = test system: crushed spinal cord ventral white matter strip; test: Potassium channel blockade (4-AP) as adjunct to PEG-mediated recovery of CAP conduction; set-up: species or system guinea pig; settings: for Enhancement of recovered CAP by 4-AP, group data: 5 cords; for Enhancement of recovered CAP by 4-AP: reversible
Method: The above-described technique should be considered as a basic one, from which testing of several variations described below was performed. For example, tests were made of the response of “recovering” axons to the additional application of the fast potassium channel blocker, 4 aminopyridine (4-AP). In this trial, 5 separate cords were treated with an application of PEG as described above and compared to 5 control cords. One hour after compression, 100 pM 4-AP (in Krebs' solution) was applied for 15 minutes and then washed free with normal Krebs' solution as described above.
Spinal cords were crushed, isolated and treated with PEG as described in Example 1. Analysis was also performed in the double sucrose recording chamber as described in Example 1.

[2] = test system: crushed spinal cord ventral white matter strip; settings: in vitro; Shi and Borgens 1999; cited from earlier work

## Nc1ccncc1 [4-AP, 4-aminopyridine]
[1]; PEG-treated (experimental) group
  Enhancement of recovered CAP by 4-AP, group data: about 70%
[1]; PEG-treated cord, 4-AP at 1 hour post PEG application, individual test
  Enhancement of recovered CAP by 4-AP: about 70%
[1]; control group (crushed, no PEG)
  Enhancement of recovered CAP by 4-AP, group data: about 40%
[1]; crushed cord untreated with PEG, 100 pM 4-AP at 1 hour post injury, single test
  Enhancement of recovered CAP by 4-AP: about 40%
[2]
  Magnitude of the recovered CAP after local 4-aminopyridine in PEG-repaired cord: nearly doubles
